# Key:
# schizophrenia patients = settings: cited from earlier work
# [1] = test system: locomotor sensitization to amphetamine; test: locomotor sensitization to amphetamine; type: in vivo
# rat locomotion = settings: cited from earlier work; for effect on locomotion at higher doses: significant D2 receptor occupancy or activation; for effect on locomotion at low doses: devoid of significant D2 receptor occupancy; for effect on rat locomotion: D3 antagonists
# [2] = test system: D3 knockout and wild type mice; settings: habituated animals; cited from earlier work
# [3] = test system: neurons in substantia nigra (SN), ventral tegmentum (VTA), and nucleus accumbens (NA); settings: cited from earlier work
# [4] = molecular target: D3 dopamine receptor (D3/D2) (Homo sapiens, UniProt P35462); settings: cited from earlier work
# [5] = test system: stereotyped behaviors induced by apomorphine and dizocilipine; settings: preclinical models of antipsychotic drug efficacy; cited from earlier work
# D2 receptors = D2 receptors (Homo sapiens, UniProt P14416); test: biochemical; settings: read-out: occupancy for D2
# behavioral sensitization = settings: later challenge; cited from earlier work
# D2 receptor = settings: dose that inhibits sensitization; cited from earlier work
# Sequence of D3 dopamine receptor (D3/D2) (P35462 whole entry): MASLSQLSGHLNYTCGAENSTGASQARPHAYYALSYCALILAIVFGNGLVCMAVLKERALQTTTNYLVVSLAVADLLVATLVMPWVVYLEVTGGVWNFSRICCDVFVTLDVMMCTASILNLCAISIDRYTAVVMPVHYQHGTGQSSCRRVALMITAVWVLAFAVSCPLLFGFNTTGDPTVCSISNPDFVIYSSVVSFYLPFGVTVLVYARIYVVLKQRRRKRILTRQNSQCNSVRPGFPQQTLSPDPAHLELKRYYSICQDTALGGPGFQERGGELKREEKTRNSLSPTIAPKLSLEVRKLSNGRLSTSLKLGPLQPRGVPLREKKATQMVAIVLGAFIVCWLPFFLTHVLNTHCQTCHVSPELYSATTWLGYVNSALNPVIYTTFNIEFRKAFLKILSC
# Sequence of D2 receptors (P14416 whole entry): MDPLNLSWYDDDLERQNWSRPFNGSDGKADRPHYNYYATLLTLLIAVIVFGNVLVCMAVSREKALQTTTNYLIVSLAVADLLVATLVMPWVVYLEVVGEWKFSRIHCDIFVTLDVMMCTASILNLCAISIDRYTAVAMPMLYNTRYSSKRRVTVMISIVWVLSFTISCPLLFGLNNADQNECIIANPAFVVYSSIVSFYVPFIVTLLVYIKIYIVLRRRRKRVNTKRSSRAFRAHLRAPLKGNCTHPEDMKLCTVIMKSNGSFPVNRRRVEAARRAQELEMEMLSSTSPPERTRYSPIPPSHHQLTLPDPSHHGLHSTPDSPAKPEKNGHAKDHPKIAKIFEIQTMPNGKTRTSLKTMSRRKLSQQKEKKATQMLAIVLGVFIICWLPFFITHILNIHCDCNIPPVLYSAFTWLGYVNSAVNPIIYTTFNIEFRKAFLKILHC
smiles,measurement,setting,value
"CCCN1CCCC(c2cccc(O)c2)C1 (single isomer, unassigned; (-)) [(−)-3PPP, (−)-3-(3-hydroxyphenyl)-N-n-propylpiperidine]",effect on psychotic symptoms,schizophrenia patients,improved psychotic symptoms in schizophrenia patients for up to one week
"CCCN(CCC)C1CCc2ccc(O)cc2C1 (stereo not shown) [7-OH-DPAT, 7-hydroxy-N,N-di-n-propyl-2-aminotetralin]",behavioral response to the D3 agonist after a sensitizing regimen of amphetamine,[1]; following a sensitizing regimen of amphetamine,decreased behavioral response
same,effect on locomotion at higher doses,rat locomotion,stimulation of locomotion
same,effect on locomotion at low doses,rat locomotion,inhibition of spontaneous locomotion
same,effect on locomotion after micro-injection,"rat locomotion; micro-injection into rat nucleus accumbens, also systemic administration in mice",inhibition of locomotion
same,difference in hypolocomotor behavioral response between D3 knockout and wild type mice,[2],Neither laboratory found a significant difference
same,effect on neuronal firing rate,[3],inhibits neuronal firing rate
CCCN[C@@H]1CCc2c(OC)cccc2[C@@H]1C [(+)-AJ 76],effect on rat locomotion,rat locomotion,stimulate rat locomotion
CCCN(CCC)[C@@H]1CCc2c(OC)cccc2[C@@H]1C [(+)-UH 232],effect on rat locomotion,rat locomotion,stimulate rat locomotion
same,effect on psychotic symptoms,schizophrenia patients,further worsened positive psychotic symptoms
O=C(NCCCCN1CCN(c2cccc(Cl)c2Cl)CC1)c1ccc2c(c1)Cc1ccccc1-2 [NGB 2904],preference (selectivity) for D3/D2,[4],155 fold
CCCN1CCO[C@@H]2c3cc(O)ccc3OC[C@H]21 [PD 128907],effect on locomotion at higher doses,rat locomotion,stimulation of locomotion
same,effect on locomotion at low doses,rat locomotion,inhibition of spontaneous locomotion
same,difference in hypolocomotor behavioral response between D3 knockout and wild type mice,[2],Neither laboratory found a significant difference
same,effect on stereotyped behaviors induced by apomorphine and dizocilipine,[5],effectively inhibits
N#Cc1ccc2c(c1)[C@H]1CN(CCCCNC(=O)c3ccc(-c4ccccc4)cc3)C[C@@H]1CO2 [S33084],preference (selectivity) for D3/D2,[4],100 fold
CCCN(CCC)C1Cc2cc(OC)c(OC)cc2C1 [U99194A],effect on rat locomotion,rat locomotion,stimulate rat locomotion
NCCc1ccc(O)c(O)c1 [dopamine],receptor occupancy at 0.75 µM,D2 receptors,27%
O=C(CCCN1CCC(O)(c2ccc(Cl)cc2)CC1)c1ccc(F)cc1 [haloperidol],sensitization after repetitive treatment,behavioral sensitization,"results in sensitization to later challenge by cocaine, amphetamine, or the dopamine agonist apomorphine"
CCCCN1CCCC1CNC(=O)c1cc(C#N)c2ccccc2c1OC (stereo not shown) [nafadotride],effect on locomotor sensitization to amphetamine,[1]; dose devoid of appreciable D2 receptor occupancy,inhibition of locomotor sensitization to amphetamine
same,preference (selectivity) for D3/D2,[4],10 fold
same,effect on rat locomotion,rat locomotion,stimulate rat locomotion
same,D2 receptor occupancy at the dose used,D2 receptor,devoid of appreciable D2 receptor occupancy
CCN1CCCC1CNC(=O)c1cc(S(N)(=O)=O)ccc1OC (stereo not shown) [sulpiride],D2/D3 affinity ratio,[4],2
same,sensitization after repetitive treatment,behavioral sensitization,results in sensitization to cocaine

# From patent publication US20040176467A1, “Method of preventing or reducing the occurrence of symptoms of psychosis” (priority 2004, published 2004)
